Results published in patent US5300498A, “6-piperazinyl-1H-pyrazolo[3,4-b]pyridine-3-carboxylic acids, esters, amides and related compounds” (Hoechst-Roussel Pharmaceuticals Incorporated, priority 1993, dated 1994).
Counter-ions that a name gives are not always drawn.

Test system: serotonin (5HT) uptake
Assay: [^3 H]-Serotonin Uptake in Rat Whole Brain and Hypothalamic Synaptosomes
Type: biochemical, rat (male CR Wistar)
Conditions: 50 nM [^3 H]-5HT, 37° C., 5 minutes, read-out: Inhibition of Serotonin Uptake, IC50
Description: [^3 H]-Serotonin Uptake in Rat Whole Brain and Hypothalamic Synaptosomes
A. Animals: Male CR Wistar rats (100-125 g).
1. Krebs-Henseleit Bicarbonate Buffer, pH 7.4 (KHBB):
Prior to use add to 200 ml, per assay:
Make a 4 liter batch, containing the following salts:
3. Sucrose solution: 0.32M sucrose containing 5 mM HEPES and 0.1 mM EDTA; pH to 7.3 using Tris base.
4. A 0.1 mM stock solution of serotonin creatinine SO4 is made up in 0.01N HCl. This is used to dilute the specific activity of the radiolabeled 5HT.
The final desired concentration of [^3 H]-5HT in the assay is 50 nM. The dilution factor is 0.8.
6. For most assays, a 0.5 mM stock solution of the test compound is made up initially in either 10 μl of glacial acetic acid, 100 μl DMSO or 10 μl of the recrystallization solvent, to which is added approximately 10 ml of distilled water. Compounds are initially screened in duplicate at 3 concentrations (10^-8, 10^-7 and 10^-6 M) made up in water.
43, 1114 (1984) and Dunkley, P. R., Jarvie, R. E., Heath, J. W., Kidd, G. J., Rostas, J. A. P. Brain Research 372, 115 (1986). Male Wistar rats are decapitated and the brain rapidly removed. […] The following procedures are performed on ice. Homogenization should be done with 4-5 up and down strokes at medium speeds (setting 4.5 to 5) to minimize synaptosome lysis.
Tubes are carefully removed, and the top layer and the top part of the middle (red) layer are discarded using a pasteur pipette. […] This is carefully removed, placed in a centrifuge tube, diluted with KHBB and spun at 21,000 g (13,000 rpm, Sorvall SS-34 rotor).
200 μl of the tissue suspension are added to each of 24 tubes (at a time) containing the 20 μl of vehicle or drug on ice. Three minutes later, 800 μl of KHBB containing [^3 H]-5HT are added, and the tubes are vortexed. […] Uptake is terminated by filtration through GF/B filter strips using a Brandel cell harvester (filter strips are presoaked in ice cold filtration buffer). Tubes are washed once with 5 ml of ice cold filtration buffer.

For `CN1CCN(c2ccc3cn[nH]c3n2)CC1` [6-(4-Methyl-1-piperazinyl)-1H-pyrazolo[3,4-b]pyridine], which IC50 is on record?
The IC50 was 8.26 µM.

How did the IC50 turn out when `CN1CCN(c2ccc3c(C#N)n[nH]c3n2)CC1` [6-(4-Methyl-1-piperazinyl)-1H-pyrazolo[3,4-b]pyridine-3-carbonitrile] was run?
Its IC50 is 0.764 µM.

Which IC50 does the source give for `N#Cc1n[nH]c2nc(N3CCCNCC3)ccc12` [6-(Hexahydro-1H-1,4-diazepin-1-yl)-1H-pyrazolo[3,4-b]pyridine-3-carbonitril] here?
The IC50 was 0.349 µM.

Which IC50 does the source give for `N#Cc1n[nH]c2nc(N3CCNCC3)ccc12` [6-(1-Piperazinyl)-1H-pyrazolo[3,4-b]pyridine-3-carbonitrile] here?
The IC50 was 0.696 µM.

For `CN1CCN(c2ccc3cnn(C)c3n2)CC1` [1-Methyl-6-(4-methyl-1-piperazinyl)-1H-pyrazolo[3,4-b]pyridine], which IC50 is on record?
The IC50 was 3.43 µM.

For `NC(=O)c1n[nH]c2nc(N3CCNCC3)ccc12` [6-(1-Piperazinyl)-1H-pyrazolo[3,4-b]pyridine-3-carboxamide hydrochloride hydrate], which IC50 is on record?
The IC50 was 7.69 µM.
